According to PMC4805166, “Synthetic Cyclolipopeptides Selective against Microbial, Plant and Animal Cell Targets by Incorporation of D-Amino Acids or Histidine” (PLoS ONE, 2016):
Read-outs that look alike come from different tables or passages of the source. Where a SMILES comes first, the peptide text is derived from it. Side-chain parts run from the residue outwards. [ ]: non-standard residue; d: D form. The star is where a group is joined. Pentanoyl(4-Me) = CC(C)CCC(=O)*; Hexanoyl = CCCCCC(=O)*; Butyryl = CCCC(=O)*

Tests used:
[1] = test system: Pseudomonas syringae pv. syringae EPS94; format: cell-based; settings: 48 h
In short: (§1)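 Peptide dilutions (stocks 500–31.1 μM) mixed 1:10 with 10^8 CFU/mL bacterial suspension in TSB. Incubated 25 °C, OD600 read hourly for 48 h, triplicates, repeated twice. MIC: lowest concentration with no growth at end.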

[2] = test system: Xanthomonas axonopodis pv. vesicatoria 2133–2; format: cell-based; settings: TSB, 25°C, 48 h, OD 600 nm; tested at 3.1, 6.2, 12.5, 25, 50 μM; three replicates, experiment repeated twice; MIC = lowest concentration with no growth
In short: as §1

[3] = test system: erythrocyte suspensions of horse blood; settings: horse erythrocytes 5% vol/vol, TRIS buffer pH 7.2, 1 h at 37°C, absorbance 540 nm, relative to melittin 100 μM, ± confidence interval (α = 0.05); for Hemolysis (%) 150 µM: 150 µM peptide; for Hemolysis (%) 250 µM: 250 µM peptide;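 on all read-outs here: Read-out is hemoglobin release into the supernatant, with a buffer-only blank subtracted as the 0% baseline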
[4] = test system: E. amylovora, P. syringae pv. syringae, X. axonopodis pv. vesicatoria and F. oxysporum; format: cell-based; settings: for Antimicrobial activity, in words: authors' overall judgement over the pathogens tested; for MIC against three pathogens: three of the four pathogens tested; for MIC values over the pathogens tested: span of MIC values over the four pathogens
Description: The following plant pathogenic bacterial strains were used: Erwinia amylovora PMV6076 (Institut National de la Recherche Agronomique, Angers, France), Pseudomonas syringae pv. syringae EPS94 (Institut de Tecnologia Agroalimentària, Universitat de Girona, Spain) and Xanthomonas axonopodis pv. vesicatoria 2133–2 (Instituto Valenciano de Investigaciones Agrarias, Valencia, Spain). All bacteria were stored in Luria Bertani (LB) broth supplemented with glycerol (20%) and maintained at -80°C. Bacteria were scrapped from LB agar after growing for 24–48 h at 25°C. The cell material was suspended in sterile water to obtain a suspension of 10^8 CFU mL^-1.
Fusarium oxysporum f. sp. lycopersici FOL 3 race 2 (ATCC 201829, American Type Culture Collection) was used as fungal pathogen. The strain was cultured on potato dextrose agar (PDA) plates (Difco) and microconidia were obtained after growth at 25°C. The concentration of conidia was determined using a hemacytometer and adjusted to 10^4 conidia mL^-1.
Lyophilized peptides were solubilized in sterile Milli-Q water to a final concentration of 1 mM and filter sterilized through a 0.22-μm pore filter. For minimum inhibitory concentration (MIC) assessment, dilutions of the compounds were made to obtain a stock concentration of […]. For antibacterial activity twenty microlitres of each dilution were mixed in a microtiter plate well with 20 μL of the corresponding suspension of the bacterial indicator, 160 μL of Trypticase Soy Broth (TSB) (BioMèrieux, France) to a total volume of 200 μL. For antifungal activity 20 μL of each stock solution were mixed in a microtiter plate well with 80 μL of the corresponding suspension of the fungal pathogen and 100 μL of double concentrated PDB to a total volume of 200 μL containing 0.003% w/v of choramphenicol.
Three replicates for each strain, compound and concentration were used. Microbial growth was determined by optical density measurement at 600 nm (Bioscreen C, Labsystem, Helsinki, Finland). For antibacterial activity microplates were incubated at 25°C with 20 sec shaking before hourly absorbance measurement for 48 h. For antifungal activity microplates were incubated at 20°C with 1 min shaking before absorbance measurement that were done every two hours during seven days. The experiment was repeated twice. The MIC was taken as the lowest compound concentration with no growth at the end of the experiment.

[5] = test system: Erwinia amylovora PMV6076; assay: MIC, in vitro growth inhibition; format: cell-based; settings: TSB, 25°C, 48 h, OD 600 nm; tested at 3.1, 6.2, 12.5, 25, 50 μM; three replicates, experiment repeated twice; MIC = lowest concentration with no growth
In short: as §1

[6] = test system: Fusarium oxysporum f. sp. lycopersici FOL 3 race 2; assay: MIC, antifungal growth inhibition; format: cell-based
In short: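 Microconidia are grown on PDA at 25 °C and adjusted to 10^4 conidia/mL. Peptide stocks of 500, 250, 125, 62.5 and 31.1 µM (stock, not final) are mixed with conidia in double-concentrated PDB with 0.003% chloramphenicol, in triplicate, and incubated at 20 °C. OD600 is read every 2 h for seven days, and MIC is the lowest concentration with no growth at the end.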

[7] = PDB with 0.003% chloramphenicol, 20°C, seven days, OD 600 nm, tested at 3.1, 6.2, 12.5, 25, 50 μM, three replicates, repeated twice

Molecule	MIC Pss [1]	MIC Xav [2]	Hemolysis (%) 150 µM [3]	Antimicrobial activity, in words [4]	MIC Ea [5]	MIC Fo [6]	MIC Fo [6, 7]	MIC against three pathogens [4]	MIC values over the pathogens tested [4]	Hemolysis (%) 250 µM [3]	MIC Pss ([1]; TSB, 25°C, OD 600 nm, tested at 3.1, 6.2, 12.5, 25, 50 μM, three replicates, experiment repeated twice, MIC = lowest concentration with no growth)
CC(C)C[C@@H]1NC(=O)[C@H](CCCCN)NC(=O)[C@H](CCCCN)NC(=O)[C@H](CCC(N)=O)NC(=O)[C@H](CC(C)C)NC(=O)[C@H](CCCCN)NC(=O)[C@H](CCCCN)NC(=O)[C@H](Cc2ccccc2)NC(=O)[C@H](CCCCN)NC(=O)[C@H](CCCCN)NC1=O [BPC194] (cyclo(FKKLQKKLKK))	3.1 to 6.2 µM	3.1 to 6.2 µM	4 ± 1%	high antimicrobial activity	6.2 to 12.5 µM	< 3.1 µM	<3.1 µM				
CC(C)CCC(=O)NCCCC[C@@H]1NC(=O)[C@H](CCCCN)NC(=O)[C@H](CC(C)C)NC(=O)[C@H](CCCCN)NC(=O)[C@H](CCCCN)NC(=O)[C@H](CCC(N)=O)NC(=O)[C@H](CC(C)C)NC(=O)[C@H](CCCCN)NC(=O)[C@H](CCCCN)NC(=O)[C@H](Cc2ccccc2)NC1=O [BPC504, c(KKLKK(CO-isoC5H11)FKKLQ)] (cyclo(FKKLQKKLKK(Pentanoyl(4-Me))))	6.2 to 12.5 µM	3.1 to 6.2 µM	89 ± 2%		12.5 to 25 µM		3.1 to 6.2 µM	< 12.5 µM			
CCCCCC(=O)NCCCC[C@@H]1NC(=O)[C@H](CCCCN)NC(=O)[C@H](CC(C)C)NC(=O)[C@H](CCCCN)NC(=O)[C@H](CCCCN)NC(=O)[C@H](CCC(N)=O)NC(=O)[C@H](CC(C)C)NC(=O)[C@H](CCCCN)NC(=O)[C@H](CCCCN)NC(=O)[C@H](Cc2ccccc2)NC1=O [BPC528, c(KKLKK(CO-nC5H11)FKKLQ)] (cyclo(FKKLQKKLKK(Hexanoyl)))	6.2 to 12.5 µM	3.1 to 6.2 µM	98 ± 7%		12.5 to 25 µM		6.2 to 12.5 µM	< 12.5 µM	3.1 to 25 µM		
CCCCCC(=O)NCCCC[C@@H]1NC(=O)[C@H](CCCCN)NC(=O)[C@H](CCC(N)=O)NC(=O)[C@H](CC(C)C)NC(=O)[C@H](CCCCN)NC(=O)[C@H](CCCCN)NC(=O)[C@H](Cc2ccccc2)NC(=O)[C@H](CCCCN)NC(=O)[C@H](CCCCN)NC(=O)[C@H](CC(C)C)NC1=O [BPC588] (cyclo(FKKLQKK(Hexanoyl)LKK))	6.2 to 12.5 µM	3.1 to 6.2 µM	95 ± 4%		12.5 to 25 µM		6.2 to 12.5 µM		3.1 to 25 µM		
CCCCCC(=O)NCCCC[C@@H]1NC(=O)[C@H](CCC(N)=O)NC(=O)[C@H](CC(C)C)NC(=O)[C@H](CCCCN)NC(=O)[C@H](CCCCN)NC(=O)[C@H](Cc2ccccc2)NC(=O)[C@H](CCCCN)NC(=O)[C@H](CCCCN)NC(=O)[C@H](CC(C)C)NC(=O)[C@H](CCCCN)NC1=O [BPC590] (cyclo(FKKLQK(Hexanoyl)KLKK))	6.2 to 12.5 µM	3.1 to 6.2 µM	100 ± 9%		6.2 to 12.5 µM		12.5 to 25 µM		3.1 to 25 µM		
CCCCCC(=O)N[C@@H](CCCCN)C(=O)N[C@@H](CC(C)C)C(=O)NCCCC[C@@H]1NC(=O)[C@H](CCCCN)NC(=O)[C@H](CC(C)C)NC(=O)[C@H](CCCCN)NC(=O)[C@H](CCCCN)NC(=O)[C@H](CCC(N)=O)NC(=O)[C@H](CC(C)C)NC(=O)[C@H](CCCCN)NC(=O)[C@H](CCCCN)NC(=O)[C@H](Cc2ccccc2)NC1=O [BPC596, c(KKLKK(LK-CO-nC5H11)FKKLQ)] (cyclo(FKKLQKKLKK([Leu-Lys-Hexanoyl])))	6.2 to 12.5 µM	<3.1 µM	93 ± 5%	important antimicrobial activity	12.5 to 25 µM		12.5 to 25 µM			100 ± 11%	
CCCCCC(=O)NCCCC[C@H]1NC(=O)[C@H](CCCCN)NC(=O)[C@H](CC(C)C)NC(=O)[C@H](CCCCN)NC(=O)[C@H](CCCCN)NC(=O)[C@H](CCC(N)=O)NC(=O)[C@H](CC(C)C)NC(=O)[C@H](CCCCN)NC(=O)[C@H](CCCCN)NC(=O)[C@@H](Cc2ccccc2)NC1=O [BPC632, c(KKLKk(CO-nC5H11)fKKLQ)] (cyclo(KKLK[dK](Hexanoyl)[dF]KKLQ))	12.5 to 25 µM	25 to 50 µM	21 ± 13%	low active	25 to 50 µM		12.5 to 25 µM			22 ± 10%	
CC(C)CCC(=O)NCCCC[C@H]1NC(=O)[C@H](CCCCN)NC(=O)[C@H](CC(C)C)NC(=O)[C@H](CCCCN)NC(=O)[C@H](CCCCN)NC(=O)[C@H](CCC(N)=O)NC(=O)[C@H](CC(C)C)NC(=O)[C@H](CCCCN)NC(=O)[C@H](CCCCN)NC(=O)[C@@H](Cc2ccccc2)NC1=O [BPC634, c(KKLKk(CO-isoC5H11)fKKLQ)] (cyclo(KKLK[dK](Pentanoyl(4-Me))[dF]KKLQ))	12.5 to 25 µM	25 to 50 µM	7 ± 1%	low active	>50 µM		6.2 to 12.5 µM			17 ± 8%	
CCCC(=O)N[C@@H](CCCCN)C(=O)N[C@@H](CC(C)C)C(=O)NCCCC[C@@H]1NC(=O)[C@H](CCCCN)NC(=O)[C@H](CC(C)C)NC(=O)[C@H](CCCCN)NC(=O)[C@H](CCCCN)NC(=O)[C@H](CCC(N)=O)NC(=O)[C@H](CC(C)C)NC(=O)[C@H](CCCCN)NC(=O)[C@H](CCCCN)NC(=O)[C@@H](Cc2ccccc2)NC1=O [BPC726, c(KKLKK(LK-CO-C3H7)fKKLQ)] (cyclo(KKLKK([Leu-Lys-Butyryl])[dF]KKLQ))	12.5 to 25 µM	6.2 to 12.5 µM	0 ± 1%		25 to 50 µM		3.1 to 6.2 µM			4 ± 2%	
c(KKLKK(CO-C8H17)FKKLQ) [BPC594]		3.1 to 6.2 µM			25 to 50 µM		6.2 to 12.5 µM	< 12.5 µM			6.2 to 12.5 µM
